Results taken from PubChem BioAssay (NCI).
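Grown in 96-well plates, cells were treated for 48 hours with each compound at five concentrations. Insufficient inhibition: endpoint recorded as highest concentration tested. Here, GI50 denotes the concentration required for 50% inhibition of growth. Definition used: TGI = concentration required for complete inhibition of growth.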

Key:
Experiment in all cases: NCI-60 cell line screen, 48 h
ACHN renal = tested on: ACHN renal
LOX IMVI melanoma = tested on: LOX IMVI melanoma
M14 melanoma = tested on: M14 melanoma
NCI-H226 lung = tested on: NCI-H226 lung
NCI-H460 lung = tested on: NCI-H460 lung
OVCAR-4 ovarian = tested on: OVCAR-4 ovarian
SF-539 CNS = tested on: SF-539 CNS
SN12C renal = tested on: SN12C renal
SNB-75 CNS = tested on: SNB-75 CNS
UO-31 renal = tested on: UO-31 renal

Compound	GI50 (ACHN renal)	TGI (ACHN renal)	GI50 (LOX IMVI melanoma)	TGI (LOX IMVI melanoma)	GI50 (M14 melanoma)	TGI (M14 melanoma)	GI50 (NCI-H226 lung)	TGI (NCI-H226 lung)	GI50 (NCI-H460 lung)	TGI (NCI-H460 lung)	GI50 (OVCAR-4 ovarian)	TGI (OVCAR-4 ovarian)	GI50 (SF-539 CNS)	TGI (SF-539 CNS)	GI50 (SN12C renal)	TGI (SN12C renal)	GI50 (SNB-75 CNS)	TGI (SNB-75 CNS)	GI50 (UO-31 renal)	TGI (UO-31 renal)
O=C(NCc1ccc(Cn2c(=O)sn(-c3ccccc3)c2=O)cc1)OCc1ccc2c(Br)cc(Br)c(O)c2n1	0.281 µM	0.927 µM	0.171 µM	0.348 µM	0.412 µM	1.51 µM	1.02 µM	2.41 µM	1.48 µM	3.37 µM	0.695 µM	1.96 µM	0.793 µM	2.07 µM	0.703 µM	2.06 µM	0.606 µM	1.97 µM	0.392 µM	1.77 µM
CCOC(=O)C(=Cc1ccc(Oc2ccccc2)cc1)C(=O)OCC	–	18.3 µM	–	3.22 µM	–	9.6 µM	–	12.1 µM	–	40.7 µM	–	22.9 µM	–	10.3 µM	–	5.65 µM	–	11 µM	–	11.8 µM
CC(=O)c1ccc(NC(=O)C(=O)Nn2c(=S)[nH]c3ccccc3c2=O)cc1	–	> 100 µM	–	> 100 µM	–	> 100 µM	–	> 100 µM	–	> 100 µM	–	> 100 µM	–	> 100 µM	–	> 100 µM	–	> 100 µM	–	> 100 µM
COC(=O)C1=C(C)NC(C)=C(C(=O)OC)C1/C=C(Cl)/C=C/c1ccccc1	24.6 µM	76 µM	15.1 µM	28.8 µM	16.2 µM	30.5 µM	24.8 µM	73.2 µM	18.6 µM	45.4 µM	30.4 µM	> 100 µM	21 µM	41.2 µM	19.2 µM	41.6 µM	20 µM	54.8 µM	23.9 µM	> 100 µM
C=C(Br)N(CC)CC	–	> 100 µM	–	> 100 µM	–	> 100 µM	–	> 100 µM	–	> 100 µM	–	> 100 µM	–	> 100 µM	–	> 100 µM	–	> 100 µM	–	> 100 µM
COc1ccc(/C(C#N)=C/c2ccc(OC)c(OC)c2)cc1	–	> 100 µM	–	> 100 µM	–	> 100 µM	–	> 100 µM	–	> 100 µM	–	> 100 µM	–	> 100 µM	–	> 100 µM	–	> 100 µM	–	> 100 µM
COc1cc(O)c(C(=O)/C=C/c2ccc(O)cc2)c(O)c1[C@@H]1C[C@H](CCc2ccc(O)cc2)O[C@H](c2ccc(O)cc2)C1	3.31 µM	10.9 µM	2.93 µM	8.37 µM	3.48 µM	12.2 µM	14.8 µM	61.2 µM	3 µM	7.87 µM	3.35 µM	16.8 µM	2.61 µM	7.4 µM	4.36 µM	20.3 µM	2.59 µM	7.44 µM	3.17 µM	14.1 µM
CCNC(=O)c1cc2c(-c3cc(C(C)(C)O)ccc3Oc3c(C)cc(F)cc3C)cn(C)c(=O)c2[nH]1	2.15 µM	12.1 µM	0.922 µM	2.74 µM	1.46 µM	14.2 µM	2.64 µM	14.9 µM	3.3 µM	17.6 µM	1.84 µM	16.6 µM	1.92 µM	13.2 µM	3.03 µM	16.8 µM	0.108 µM	12.8 µM	0.1 µM	10.9 µM
COc1ccc(Cn2cc3c(c2-c2ccc(OC)cc2)CCc2cnoc2-3)cc1	0.892 µM	> 100 µM	0.706 µM	> 100 µM	0.404 µM	> 33.2 µM	1.36 µM	> 100 µM	0.347 µM	1.96 µM	0.93 µM	> 100 µM	0.307 µM	2.13 µM	0.795 µM	> 100 µM	0.216 µM	0.804 µM	0.797 µM	> 100 µM
Cc1cc(Cl)ccc1NC(=O)c1cc2ccccc2cc1O	0.583 µM	> 100 µM	0.539 µM	> 100 µM	0.657 µM	> 100 µM	0.93 µM	> 100 µM	0.511 µM	> 100 µM	1.94 µM	> 100 µM	0.783 µM	> 100 µM	0.377 µM	> 100 µM	7.14 µM	> 100 µM	0.405 µM	> 100 µM
NC(=O)c1cc(-c2ccc(F)cc2)cc(-c2ccncc2)c1N	> 25 µM	> 25 µM	> 25 µM	> 25 µM	> 25 µM	> 25 µM	19.9 µM	> 25 µM	> 25 µM	> 25 µM	> 25 µM	> 25 µM	> 25 µM	> 25 µM	> 25 µM	> 25 µM	4.99 µM	> 25 µM	7.88 µM	> 25 µM
CCCCCCCCCCCCCP(=O)(O)OCC	–	> 100 µM	–	> 100 µM	–	> 100 µM	–	> 100 µM	–	> 100 µM	–	> 100 µM	–	> 100 µM	–	> 100 µM	–	> 100 µM	–	> 100 µM
Cc1occc1C(=S)Nc1ccc(Cl)c(C(=O)OC(C)C2CC2)c1 (stereo not given)	–	42 µM	–	49.5 µM	–	53.4 µM	–	33.6 µM	–	> 100 µM	–	40.5 µM	–	71.6 µM	–	41.6 µM	–	68.9 µM	–	30.5 µM
C=C1CC/C=C(\C)C(=O)C[C@@H]2[C@@H]1CC2(C)C	–	8.67 µM	–	7.06 µM	–	19.7 µM	–	42.8 µM	–	12 µM	–	6.48 µM	–	8.46 µM	–	13 µM	–	26.3 µM	–	7.64 µM
O=C1C2C3C=CC(C2C(=O)N1COP(=O)(O)O)C1C2C(=O)N(COP(=O)(O)O)C(=O)C2C31 (stereo not given)	–	> 100 µM	–	> 64.1 µM	–	> 100 µM	–	> 100 µM	–	> 59.5 µM	–	> 100 µM	–	> 100 µM	–	> 100 µM	–	> 100 µM	–	> 100 µM
CC1(C)[C@@H](O[C@@H]2OC[C@@H](O[C@@H]3O[C@H](CO)[C@@H](O)[C@H](O)[C@H]3O[C@@H]3OC[C@@H](O)[C@H](O)[C@H]3O)[C@H](O)[C@H]2O[C@@H]2O[C@H](CO)[C@@H](O)[C@H](O)[C@H]2O)CC[C@]2(C)[C@H]3CC[C@]45OC[C@@]6(CC[C@](C)(C=O)C[C@H]64)[C@H](O)C[C@@]5(C)[C@]3(C)CC[C@@H]12	0.824 µM	1.54 µM	0.924 µM	1.95 µM	0.925 µM	1.81 µM	0.985 µM	2.11 µM	1.17 µM	3.26 µM	0.794 µM	1.66 µM	1.21 µM	3.35 µM	0.847 µM	1.79 µM	0.746 µM	1.53 µM	0.649 µM	1.32 µM
O=C(Cc1nc2ccccc2s1)Nc1cccc(C(F)(F)F)c1	–	28.2 µM	–	26.2 µM	–	31.2 µM	–	44.7 µM	–	41.4 µM	–	30.3 µM	–	33.4 µM	–	29.7 µM	–	26.8 µM	–	27.6 µM
O=C(O)c1cccc(N=Nc2c(S(=O)(=O)O)ccc3c2C(=O)c2ccccc2C3=O)c1O	–	> 100 µM	–	> 100 µM	–	> 100 µM	–	> 100 µM	–	> 100 µM	–	> 100 µM	–	> 100 µM	–	> 100 µM	–	> 100 µM	–	> 100 µM
CC(=Nc1ccccc1)C1=C(O)C(Cc2ccccc2)NC1=O (stereo not given)	0.0625 µM	> 100 µM	0.0574 µM	> 34 µM	0.0248 µM	0.102 µM	0.244 µM	> 100 µM	0.0375 µM	1.26 µM	0.115 µM	> 100 µM	0.0439 µM	0.501 µM	0.227 µM	> 100 µM	0.0246 µM	0.0788 µM	0.0832 µM	> 100 µM
CN(C)CCNC(=O)c1cccc2c1nc(-c1ccccc1)c1ccccc12	–	13.4 µM	–	4.03 µM	–	4.34 µM	–	12.5 µM	–	13.3 µM	–	17.7 µM	–	8.02 µM	–	15.2 µM	–	19.9 µM	–	6.17 µM
Cc1c(COc2cc(OCc3cccc(C#N)c3)c(CN3C[C@H](O)C[C@@H]3C(=O)O)cc2Cl)cccc1-c1ccc2c(c1)OCCO2	17.2 µM	31 µM	4.28 µM	16 µM	13.2 µM	27.1 µM	8.86 µM	31.9 µM	14 µM	29 µM	24.7 µM	61.4 µM	15.2 µM	29.2 µM	15.7 µM	29.5 µM	13.6 µM	27 µM	16.6 µM	30.2 µM
c1cc(CNCCN2CCNCC2)ccn1	–	> 100 µM	–	> 100 µM	–	> 100 µM	–	> 100 µM	–	> 100 µM	–	> 100 µM	–	> 100 µM	–	> 100 µM	–	> 100 µM	–	> 100 µM
O=C(/C=C/c1cc([N+](=O)[O-])ccc1Cl)c1ccccc1	16.4 µM	31.9 µM	2.6 µM	6.79 µM	10.2 µM	22.5 µM	15.4 µM	59.3 µM	14.1 µM	33.7 µM	33.9 µM	> 100 µM	16.6 µM	32.7 µM	19.6 µM	54 µM	21.7 µM	99.6 µM	11.7 µM	26.4 µM
CC(=O)O[C@]1(C(C)=O)CC[C@H]2[C@@H]3C=C(C)C4=CC(=O)CC[C@]4(C)[C@H]3CC[C@@]21C	> 74.1 µM	> 100 µM	> 100 µM	> 100 µM	> 85.6 µM	> 100 µM	> 83.7 µM	> 100 µM	98.5 µM	> 100 µM	> 91.5 µM	> 100 µM	> 61.4 µM	> 100 µM	> 100 µM	> 100 µM	> 59.8 µM	> 100 µM	> 100 µM	> 100 µM
O=C(NP(=O)(N1CC1)N1CC1)c1cc(I)ccc1I	–	> 65.1 µM	–	54.8 µM	–	> 100 µM	–	> 100 µM	–	> 79 µM	–	> 100 µM	–	71.7 µM	–	> 100 µM	–	79.1 µM	–	> 100 µM
CC1OC(OC2C(O[C@H]3CC[C@@]4(C)C(=CC[C@H]5[C@@H]6C[C@@H]7O[C@]8(CC[C@H](C)CN8)[C@@H](C)[C@@H]7[C@@]6(C)CC[C@@H]54)C3)OC(CO)C(O)C2OC2OC(CO)C(O)C(O)C2O)C(O)C(O)C1O (stereo not given in full)	–	31.4 µM	–	83.6 µM	–	37.8 µM	–	38.2 µM	–	31.6 µM	–	37 µM	–	33.8 µM	–	38.6 µM	–	29.2 µM	–	33.2 µM
COc1cc(C2=C(C#Cc3ccccc3)COC2=O)cc(OC)c1OC	1.8 µM	8.16 µM	0.738 µM	3.92 µM	1.77 µM	11.7 µM	1.73 µM	4.6 µM	3.3 µM	> 100 µM	34.2 µM	> 100 µM	0.646 µM	4.87 µM	0.261 µM	1.38 µM	4.98 µM	> 100 µM	3.6 µM	> 32.7 µM
CC1(C)Cc2cc(C(=O)O)c3c(c2C1=O)COCC3	–	> 100 µM	–	> 100 µM	–	> 100 µM	–	> 100 µM	–	> 100 µM	–	> 100 µM	–	> 100 µM	–	> 100 µM	–	> 100 µM	–	> 100 µM
Cn1ccnc1C(=O)/C=C/c1ccccc1	4.53 µM	20.3 µM	2.99 µM	14.3 µM	3.41 µM	10.4 µM	3.24 µM	14.9 µM	3.2 µM	11.4 µM	7.47 µM	26 µM	2.18 µM	4.78 µM	3 µM	17.3 µM	2.55 µM	6.54 µM	4.69 µM	71.4 µM
COC(=O)CCC(=O)CC(=O)C(=O)Nc1c(Cl)cc([N+](=O)[O-])cc1Cl	–	> 100 µM	–	> 100 µM	–	> 100 µM	–	> 100 µM	–	> 100 µM	–	> 100 µM	–	> 100 µM	–	> 100 µM	–	> 100 µM	–	> 100 µM
